Experimental data: PMC5033673 (Cancer research, 2016)

Molecular target: MutSα (MSH2/MSH6 heterodimer) (Homo sapiens, UniProt P43246+P52701)
Experiment: Biacore SPR
Assay type: binding

MutSα (MSH2/MSH6 heterodimer), sequence (P43246 2-934): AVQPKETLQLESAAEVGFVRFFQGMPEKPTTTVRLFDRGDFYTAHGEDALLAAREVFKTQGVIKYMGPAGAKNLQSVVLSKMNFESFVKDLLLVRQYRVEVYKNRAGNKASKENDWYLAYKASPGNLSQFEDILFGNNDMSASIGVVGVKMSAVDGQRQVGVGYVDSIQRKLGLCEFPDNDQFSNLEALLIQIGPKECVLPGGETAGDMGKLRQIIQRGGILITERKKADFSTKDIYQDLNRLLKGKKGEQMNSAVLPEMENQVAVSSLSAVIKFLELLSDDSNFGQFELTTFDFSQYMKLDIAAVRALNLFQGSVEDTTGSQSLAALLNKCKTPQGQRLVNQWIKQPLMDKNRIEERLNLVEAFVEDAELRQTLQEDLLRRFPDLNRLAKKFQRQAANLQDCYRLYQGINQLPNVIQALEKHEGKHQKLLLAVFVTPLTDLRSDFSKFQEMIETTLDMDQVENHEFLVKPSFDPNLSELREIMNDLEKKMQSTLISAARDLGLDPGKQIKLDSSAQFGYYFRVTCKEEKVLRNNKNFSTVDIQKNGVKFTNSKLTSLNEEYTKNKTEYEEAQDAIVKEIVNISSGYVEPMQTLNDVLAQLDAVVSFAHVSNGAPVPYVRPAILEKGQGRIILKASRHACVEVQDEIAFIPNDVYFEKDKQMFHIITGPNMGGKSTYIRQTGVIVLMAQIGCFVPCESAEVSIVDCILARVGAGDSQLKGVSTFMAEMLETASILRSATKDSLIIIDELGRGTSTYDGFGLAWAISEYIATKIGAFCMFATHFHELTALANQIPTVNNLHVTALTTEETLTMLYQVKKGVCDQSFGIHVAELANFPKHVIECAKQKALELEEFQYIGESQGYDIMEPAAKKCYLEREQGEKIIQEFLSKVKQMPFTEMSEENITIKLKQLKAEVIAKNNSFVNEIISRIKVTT
MutSα (MSH2/MSH6 heterodimer), sequence (P52701 whole entry): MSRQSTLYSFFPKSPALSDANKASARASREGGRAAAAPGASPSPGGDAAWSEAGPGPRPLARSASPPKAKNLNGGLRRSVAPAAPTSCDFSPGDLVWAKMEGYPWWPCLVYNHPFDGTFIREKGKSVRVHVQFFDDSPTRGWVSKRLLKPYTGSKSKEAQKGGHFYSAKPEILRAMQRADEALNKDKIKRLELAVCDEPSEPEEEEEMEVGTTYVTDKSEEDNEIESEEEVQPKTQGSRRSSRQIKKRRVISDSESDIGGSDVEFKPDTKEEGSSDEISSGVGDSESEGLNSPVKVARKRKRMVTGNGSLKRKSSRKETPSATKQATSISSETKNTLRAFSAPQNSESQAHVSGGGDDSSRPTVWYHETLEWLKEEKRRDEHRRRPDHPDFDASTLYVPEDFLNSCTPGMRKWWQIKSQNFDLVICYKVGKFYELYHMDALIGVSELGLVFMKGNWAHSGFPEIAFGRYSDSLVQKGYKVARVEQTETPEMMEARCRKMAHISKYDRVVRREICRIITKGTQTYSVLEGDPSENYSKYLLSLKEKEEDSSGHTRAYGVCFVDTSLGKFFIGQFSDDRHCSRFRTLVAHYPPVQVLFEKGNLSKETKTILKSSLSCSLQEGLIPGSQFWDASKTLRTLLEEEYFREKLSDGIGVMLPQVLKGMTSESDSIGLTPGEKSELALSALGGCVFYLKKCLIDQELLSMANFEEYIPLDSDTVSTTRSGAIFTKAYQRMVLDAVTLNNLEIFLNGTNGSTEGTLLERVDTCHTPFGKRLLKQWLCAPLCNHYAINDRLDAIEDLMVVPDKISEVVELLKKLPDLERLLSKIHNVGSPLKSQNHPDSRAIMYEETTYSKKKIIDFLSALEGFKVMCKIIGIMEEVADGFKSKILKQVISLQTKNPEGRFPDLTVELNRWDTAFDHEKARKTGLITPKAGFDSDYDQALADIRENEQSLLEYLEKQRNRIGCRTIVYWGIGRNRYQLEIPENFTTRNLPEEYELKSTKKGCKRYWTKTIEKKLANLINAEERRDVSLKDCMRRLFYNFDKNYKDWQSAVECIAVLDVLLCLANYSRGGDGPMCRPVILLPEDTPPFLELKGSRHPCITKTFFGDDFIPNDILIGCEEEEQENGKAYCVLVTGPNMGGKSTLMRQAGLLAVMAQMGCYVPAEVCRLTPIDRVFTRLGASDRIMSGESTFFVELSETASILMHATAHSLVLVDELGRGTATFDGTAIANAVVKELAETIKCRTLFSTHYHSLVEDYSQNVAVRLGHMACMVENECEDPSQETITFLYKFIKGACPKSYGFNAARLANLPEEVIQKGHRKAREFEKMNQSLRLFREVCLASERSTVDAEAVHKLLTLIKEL

O=c1cc(-c2ccccc2)oc2cc(O)c(O)c(O)c12 [baicalein, 5,6,7-trihydroxyflavone]
Kd: ~32.2 µM
